The source of these data is patent US20130053381A1, “2,4-DIOXO-1,4-DIHYDRO-2H-QUINAZOLIN-3-YL-SULFONAMIDE DERIVATIVES” (NOVARTIS AG, priority 2010, published 2013).

The test system of this assay is OF1 mice. The assay can be described thus: Maximal electroshock test (MES Test). The format is in vivo. The conditions noted are these: Mus musculus, po, pre-treatment time −1 h, read-out: %-Protection; for responders at 50 mg/kg: p.o.; for responders at 25 mg/kg: p.o. (footnote b). The method in brief:
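Readout: fraction of five OF1 mice protected, meaning seizure duration 3 s or less, after a 50 Hz, 18 mA, 0.2 s temporal-electrode shock. Dosing was oral, usually 50 mg/kg, one hour beforehand; ED50 values were derived and post-shock blood taken for exposure.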

As for `CC(C)C(=O)N(n1c(=O)[nH]c2cc(C(F)(F)F)c(-c3ccnn3C(C)C)cc2c1=O)S(C)(=O)=O` [Example 5.05, N-Isobutyryl-N-[6-(2-isopropyl-2H-pyrazol-3-yl)-2,4-dioxo-7-trifluoromethyl-1,4-dihydro-2H-quinazolin-3-yl]-methanesulfonamide], the responders at 50 mg/kg was 60%.
As to `CCOC(=O)N(n1c(=O)[nH]c2cc(C(F)(F)F)c(-c3ccnn3C(C)C)cc2c1=O)S(C)(=O)=O` [Example 5.06, [6-(2-Isopropyl-2H-pyrazol-3-yl)-2,4-dioxo-7-trifluoromethyl-1,4-dihydro-2H-quinazolin-3-yl]-methanesulfonyl-carbamic acid ethyl ester], the responders at 50 mg/kg was 60%.
As to `CCCOC(=O)N(n1c(=O)[nH]c2cc(C(F)(F)F)c(-c3ccnn3C(C)C)cc2c1=O)S(C)(=O)=O` [Example 5.07, [6-(2-Isopropyl-2H-pyrazol-3-yl)-2,4-dioxo-7-trifluoromethyl-1,4-dihydro-2H-quinazolin-3-yl]-methanesulfonyl-carbamic acid propyl ester], the responders at 50 mg/kg worked out at 40%.
Regarding `CCCCOC(=O)N(n1c(=O)[nH]c2cc(C(F)(F)F)c(-c3ccnn3C(C)C)cc2c1=O)S(C)(=O)=O` [Example 5.08, [6-(2-Isopropyl-2H-pyrazol-3-yl)-2,4-dioxo-7-trifluoromethyl-1,4-dihydro-2H-quinazolin-3-yl]-methanesulfonyl-carbamic acid butyl ester], the responders at 50 mg/kg turned out to be 100%.
Still for that read-out and setting: in the case of `CC(C)COC(=O)N(n1c(=O)[nH]c2cc(C(F)(F)F)c(-c3ccnn3C(C)C)cc2c1=O)S(C)(=O)=O` [Example 5.09, [6-(2-Isopropyl-2H-pyrazol-3-yl)-2,4-dioxo-7-trifluoromethyl-1,4-dihydro-2H-quinazolin-3-yl]-methanesulfonyl-carbamic acid isobutyl ester] it was 40%; in that of `COCCOC(=O)N(n1c(=O)[nH]c2cc(C(F)(F)F)c(-c3ccnn3C(C)C)cc2c1=O)S(C)(=O)=O` [Example 5.10, [6-(2-Isopropyl-2H-pyrazol-3-yl)-2,4-dioxo-7-trifluoromethyl-1,4-dihydro-2H-quinazolin-3-yl]-methanesulfonyl-carbamic acid 2-methoxy-ethyl ester], 20%.
Consider `CCOC(=O)CCCC(=O)N(n1c(=O)[nH]c2cc(C(F)(F)F)c(-c3ccnn3C(C)C)cc2c1=O)S(C)(=O)=O` [Example 5.11, 5-{[6-(2-Isopropyl-2H-pyrazol-3-yl)-2,4-dioxo-7-trifluoromethyl-1,4-dihydro-2H-quinazolin-3-yl]-methanesulfonyl-amino}-5-oxo-pentanoic acid ethyl ester], for which the responders at 50 mg/kg stood at 40%.
Consider `CCOC(=O)CC(=O)N(n1c(=O)[nH]c2cc(C(F)(F)F)c(-c3ccnn3C(C)C)cc2c1=O)S(C)(=O)=O` [Example 5.12, 3-{[6-(2-Isopropyl-2H-pyrazol-3-yl)-2,4-dioxo-7-trifluoromethyl-1,4-dihydro-2H-quinazolin-3-yl]-methanesulfonyl-amino}-3-oxo-propionic acid ethyl ester], for which the responders at 50 mg/kg worked out at 40%.
Still for that read-out and setting: under `CSCCC(=O)N(n1c(=O)[nH]c2cc(C(F)(F)F)c(-c3ccnn3C(C)C)cc2c1=O)S(C)(=O)=O` [Example 5.13, N-[6-(2-Isopropyl-2H-pyrazol-3-yl)-2,4-dioxo-7-trifluoromethyl-1,4-dihydro-2H-quinazolin-3-yl]-N-(3-methylsulfanyl-propionyl)-methanesulfonamide] stands 40%.
`CC(=O)N(n1c(=O)[nH]c2cc(C(F)F)c(-c3ccnn3C(C)C)cc2c1=O)S(C)(=O)=O` [Example 6.01, N-Acetyl-N-[7-difluoromethyl-6-(2-isopropyl-2H-pyrazol-3-yl)-2,4-dioxo-1,4-dihydro-2H-quinazolin-3-yl]-methanesulfonamide]: the responders at 50 mg/kg came out at 40% and the responders at 25 mg/kg came out at 20%.
With `CCCC(=O)N(n1c(=O)[nH]c2cc(C(F)F)c(-c3ccnn3C(C)C)cc2c1=O)S(C)(=O)=O` [Example 6.02, N-Butyryl-N-[7-difluoromethyl-6-(2-isopropyl-2H-pyrazol-3-yl)-2,4-dioxo-1,4-dihydro-2H-quinazolin-3-yl]-methanesulfonamide], the responders at 50 mg/kg was 40% and the responders at 25 mg/kg was 0%.
As for `CCCCC(=O)N(n1c(=O)[nH]c2cc(C(F)F)c(-c3ccnn3C(C)C)cc2c1=O)S(C)(=O)=O` [Example 6.03, N-[7-Difluoromethyl-6-(2-isopropyl-2H-pyrazol-3-yl)-2,4-dioxo-1,4-dihydro-2H-quinazolin-3-yl]-N-pentanoyl-methanesulfonamide], the responders at 50 mg/kg was determined as 40% and the responders at 25 mg/kg amounted to 0%.
The corresponding values for `CCCOC(=O)N(n1c(=O)[nH]c2cc(C(F)F)c(-c3ccnn3C(C)C)cc2c1=O)S(C)(=O)=O` [Example 6.04, [7-Difluoromethyl-6-(2-isopropyl-2H-pyrazol-3-yl)-2,4-dioxo-1,4-dihydro-2H-quinazolin-3-yl]-methanesulfonyl-carbamic acid propyl ester] are 20% and 0%.
Take `CCC(=O)N(n1c(=O)[nH]c2cc(C(F)F)c(-c3ccnn3C(C)C)cc2c1=O)S(C)(=O)=O` [Example 6.05, N-[7-Difluoromethyl-6-(2-isopropyl-2H-pyrazol-3-yl)-2,4-dioxo-1,4-dihydro-2H-quinazolin-3-yl]-N-propionyl-methanesulfonamide]: the responders at 50 mg/kg was determined as 80% and the responders at 25 mg/kg was 60%.
The like results for `CCOC(=O)N(n1c(=O)[nH]c2cc(C(F)F)c(-c3ccnn3C(C)C)cc2c1=O)S(C)(=O)=O` [Example 6.06, [7-Difluoromethyl-6-(2-isopropyl-2H-pyrazol-3-yl)-2,4-dioxo-1,4-dihydro-2H-quinazolin-3-yl]-methanesulfonyl-carbamic acid ethyl ester] were, in that order, 60% and 20%.
With `COCCOC(=O)N(n1c(=O)[nH]c2cc(C(F)F)c(-c3ccnn3C(C)C)cc2c1=O)S(C)(=O)=O` [Example 6.07, [7-Difluoromethyl-6-(2-isopropyl-2H-pyrazol-3-yl)-2,4-dioxo-1,4-dihydro-2H-quinazolin-3-yl]-methanesulfonyl-carbamic acid 2-methoxy-ethyl ester], the responders at 50 mg/kg amounted to 40%.
Consider `Cc1nccn1-c1cc2c(=O)n(NS(C)(=O)=O)c(=O)[nH]c2cc1C(F)(F)F` [Example 7.0, N-[6-(2-Methyl-imidazol-1-yl)-2,4-dioxo-7-trifluoromethyl-1,4-dihydro-2H-quinazolin-3-yl]-methanesulfonamide], for which the responders at 50 mg/kg is 0%.
For the compound `CCOC(=O)N(n1c(=O)[nH]c2cc(C(F)(F)F)c(-n3ccnc3C)cc2c1=O)S(C)(=O)=O` [Example 7.01, Methanesulfonyl-[6-(2-methyl-imidazol-1-yl)-2,4-dioxo-7-trifluoromethyl-1,4-dihydro-2H-quinazolin-3-yl]-carbamic acid ethyl ester], the responders at 50 mg/kg came to 40%.
As for `CCCC(=O)N(n1c(=O)[nH]c2cc(C(F)(F)F)c(-n3ccnc3C)cc2c1=O)S(C)(=O)=O` [Example 7.02, N-Butyryl-N-[6-(2-methyl-imidazol-1-yl)-2,4-dioxo-7-trifluoromethyl-1,4-dihydro-2H-quinazolin-3-yl]-methanesulfonamide], the responders at 50 mg/kg came to 20%.
As for `CCCOC(=O)N(n1c(=O)[nH]c2cc(C(F)(F)F)c(-n3ccnc3C)cc2c1=O)S(C)(=O)=O` [Example 7.03, Methanesulfonyl-[6-(2-methyl-imidazol-1-yl)-2,4-dioxo-7-trifluoromethyl-1,4-dihydro-2H-quinazolin-3-yl]-carbamic acid propyl ester], the responders at 50 mg/kg came out at 40%.
With `Cc1nccn1-c1cc2c(=O)n(N(C(=O)OCC(C)C)S(C)(=O)=O)c(=O)[nH]c2cc1C(F)(F)F` [Example 7.04, Methanesulfonyl-[6-(2-methyl-imidazol-1-yl)-2,4-dioxo-7-trifluoromethyl-1,4-dihydro-2H-quinazolin-3-yl]-carbamic acid isobutyl ester], the responders at 50 mg/kg turned out to be 40%.
`CCC(=O)N(n1c(=O)[nH]c2cc(C(F)(F)F)c(-n3cccc3)cc2c1=O)S(C)(=O)=O` [Example 8.01, N-(2,4-Dioxo-6-pyrrol-1-yl-7-trifluoromethyl-1,4-dihydro-2H-quinazolin-3-yl)-N-propionyl-methanesulfonamide]: the responders at 50 mg/kg amounted to 20%.
Regarding `CCCC(=O)N(n1c(=O)[nH]c2cc(C(F)(F)F)c(-n3cccc3)cc2c1=O)S(C)(=O)=O` [Example 8.02, N-Butyryl-N-(2,4-dioxo-6-pyrrol-1-yl-7-trifluoromethyl-1,4-dihydro-2H-quinazolin-3-yl)-methanesulfonamide], the responders at 50 mg/kg came to 20%.
Turning to `CC(=O)OCC(=O)N(n1c(=O)[nH]c2cc(C(F)(F)F)c(-n3cccc3)cc2c1=O)S(C)(=O)=O` [Example 8.03, Acetic acid 2-[(2,4-dioxo-6-pyrrol-1-yl-7-trifluoromethyl-1,4-dihydro-2H-quinazolin-3-yl)-methanesulfonyl-amino]-2-oxo-ethyl ester], the responders at 50 mg/kg came to 40%.
Take `COC(=O)N(n1c(=O)[nH]c2cc(C(F)(F)F)c(-n3cccc3)cc2c1=O)S(C)(=O)=O` [Example 8.04, (2,4-Dioxo-6-pyrrol-1-yl-7-trifluoromethyl-1,4-dihydro-2H-quinazolin-3-yl)-methanesulfonyl-carbamic acid methyl ester]: the responders at 50 mg/kg worked out at 20%.
Regarding `CCOC(=O)N(n1c(=O)[nH]c2cc(C(F)(F)F)c(-n3cccc3)cc2c1=O)S(C)(=O)=O` [Example 8.05, (2,4-Dioxo-6-pyrrol-1-yl-7-trifluoromethyl-1,4-dihydro-2H-quinazolin-3-yl)-methanesulfonyl-carbamic acid ethyl ester], the responders at 50 mg/kg worked out at 60%.
